Consider twelve compounds from patent publication US6825170B2, “6-O-acyl ketolide antibacterials” (Ortho-McNeil Pharmaceutical, Inc., priority 2001, dated 2004).

What all share (test): MIC, microdilution broth method (NCCLS)
Holding throughout (type): cell-based
Holding throughout (conditions): 35° C., 16-20 hours

The test system of one assay is E. faecalis ATCC29212. The method, then: (§1) Minimal inhibitory concentration (MIC) has been an indicator of in vitro antibacterial activity widely used in the art. The in vitro antimicrobial activity of the compounds was determined by the microdilution broth method following the test method from the National Committee for Clinical Laboratory Standards (NCCLS). This method is described in the NCCLS Document M7-A4, Vol.17, No.2, “Methods for Dilution Antimicrobial Susceptibility Test for Bacteria that Grow Aerobically—Fourth Edition”, which is incorporated herein by reference.
(§2) In this method two-fold serial dilutions of drug in cation adjusted Mueller-Hinton broth are added to wells in microdilution trays. The test organisms are prepared by adjusting the turbidity of actively growing broth cultures so that the final concentration of test organism after it is added to the wells is approximately 5×10^4 CFU/well.
(§3) Following inoculation of the microdilution trays, the trays are incubated at 35° C. for 16-20 hours and then read. […] The amount of growth in the wells containing the test compound is compared with the amount of growth in the growth-control wells (no test compound) used in each tray. As set forth in Table 1, compounds of the present invention were tested against a variety of Gram positive and Gram negative pathogenic bacteria resulting in a range of activities depending on the organism tested.

A further assay deals with S. aureus ATCC29213. As for the experimental part: as §1, §2, §3
For the next assay, the system named is S. pneumoniae ATCC49619. The method, then:
as §1, §2, §3

In brackets after ≈: the same amount, converted by molar mass.

On to `CC[C@H]1OC(=O)[C@H](C)C(=O)[C@H](C)[C@@H](O[C@@H]2O[C@H](C)C[C@H](N(C)C)[C@H]2O)[C@](C)(OC(=O)NOC/C=C/c2ccc(-n3cccn3)cc2)C[C@@H](C)C(=O)[C@H](C)[C@H]2NC(=O)O[C@@]21C` [Compound 619], for which the “MIC (C: E. faecalis ATCC29212)” value against E. faecalis ATCC29212 was 0.12 µg/mL (≈ 0.143 µM). Besides, the “MIC (B: S. aureus ATCC29213)” value against S. aureus ATCC29213 was found to be 0.25 µg/mL (≈ 0.298 µM). Further, in the assay with S. pneumoniae ATCC49619, the “MIC (D: S. pneumoniae ATCC49619)” value came to 0.03 µg/mL (≈ 0.0357 µM).
The like results for `CCC1OC(=O)C(C)C(=O)C(C)C(OC2OC(C)CC(N(C)C)C2O)C(C)(OC(=O)NOCC=Cc2ccc(-c3cnccn3)cc2)CC(C)C(=O)C(C)C2NC(=O)OC12C` (stereo not drawn) [Compound 606] were, in that order, 0.12 µg/mL (≈ 0.141 µM), 0.25 µg/mL (≈ 0.293 µM) and 0.06 µg/mL (≈ 0.0704 µM).
The like results for `CCC1OC(=O)C(C)C(=O)C(C)C(OC2OC(C)CC(N(C)C)C2O)C(C)(OC(=O)OCC=Cc2ccc(-c3cnccn3)cc2)CC(C)C(=O)C(C)C2NC(=O)OC12C` (stereo not drawn) [Compound 19] were, in that order, 0.06 µg/mL (≈ 0.0717 µM), 0.12 µg/mL (≈ 0.143 µM) and “≦0.015 μg/mL”.
For `CC[C@H]1OC(=O)[C@H](C)C(=O)[C@H](C)[C@@H](O[C@@H]2O[C@H](C)C[C@H](N(C)C)[C@H]2O)[C@](C)(OC(=O)NOC/C=C/c2cnc3ccccc3c2)C[C@@H](C)C(=O)[C@H](C)[C@H]2NC(=O)O[C@@]21C` [Compound 620], in that order: 0.12 µg/mL (≈ 0.145 µM), 0.5 µg/mL (≈ 0.606 µM) and 0.03 µg/mL (≈ 0.0364 µM).
For `CCC1OC(=O)C(C)C(=O)C(C)C(OC2OC(C)CC(N(C)C)C2O)C(C)(OC(=O)NOCC#Cc2ccc(-c3ncccn3)cc2)CC(C)C(=O)C(C)C2NC(=O)OC12C` (stereo not drawn) [Compound 602], the “MIC (C: E. faecalis ATCC29212)” value with E. faecalis ATCC29212 amounted to 0.12 µg/mL (≈ 0.141 µM). Also, the “MIC (B: S. aureus ATCC29213)” value in the assay with S. aureus ATCC29213 is 0.25 µg/mL (≈ 0.294 µM). In the assay on S. pneumoniae ATCC49619, the “MIC (D: S. pneumoniae ATCC49619)” value is 0.03 µg/mL (≈ 0.0353 µM).
Consider `CCC1OC(=O)C(C)C(=O)C(C)C(OC2OC(C)CC(N(C)C)C2O)C(C)(OC(=O)NOCCc2ccc(-c3cnccn3)cc2)CC(C)C(=O)C(C)C2NC(=O)OC12C` (stereo not drawn) [Compound 578], for which the “MIC (C: E. faecalis ATCC29212)” value in the assay with E. faecalis ATCC29212 amounted to 0.25 µg/mL (≈ 0.298 µM). Moreover, the “MIC (B: S. aureus ATCC29213)” value in the assay on S. aureus ATCC29213 came out at 0.5 µg/mL (≈ 0.595 µM). Also, the “MIC (D: S. pneumoniae ATCC49619)” value with S. pneumoniae ATCC49619 came to 0.12 µg/mL (≈ 0.143 µM).
The like results for `CCC1OC(=O)C(C)C(=O)C(C)C(OC2OC(C)CC(N(C)C)C2O)C(C)(OC(=O)NOCC=Cc2ccc(-c3cccnn3)cc2)CC(C)C(=O)C(C)C2NC(=O)OC12C` (stereo not drawn) [Compound 607] were, in that order, 0.25 µg/mL (≈ 0.293 µM), 0.25 µg/mL (≈ 0.293 µM) and 0.03 µg/mL (≈ 0.0352 µM).
The like results for `CCC1OC(=O)C(C)C(=O)C(C)C(OC2OC(C)CC(N(C)C)C2O)C(C)(OC(=O)OCC=Cc2ccc(-n3cccn3)cc2)CC(C)C(=O)C(C)C2NC(=O)OC12C` (stereo not drawn) [Compound 21] were, in that order, 0.06 µg/mL (≈ 0.0727 µM), 0.12 µg/mL (≈ 0.145 µM) and “≦0.015 μg/mL”.
For `CCC1OC(=O)C(C)C(=O)C(C)C(OC2OC(C)CC(N(C)C)C2O)C(C)(OC(=O)OCC=Cc2ccc3ncccc3c2)CC(C)C(=O)C(C)C2NC(=O)OC12C` (stereo not drawn) [Compound 40], in that order: 0.06 µg/mL (≈ 0.0741 µM), 0.12 µg/mL (≈ 0.148 µM) and 0.06 µg/mL (≈ 0.0741 µM).
Regarding `CC[C@H]1OC(=O)[C@H](C)C(=O)[C@H](C)[C@@H](O[C@@H]2O[C@H](C)C[C@H](N(C)C)[C@H]2O)[C@](C)(OC(=O)NOC/C=C/c2cccc(-c3ncccn3)c2)C[C@@H](C)C(=O)[C@H](C)[C@H]2NC(=O)O[C@@]21C` [Compound 616], the “MIC (C: E. faecalis ATCC29212)” value in the assay on E. faecalis ATCC29212 stood at 0.25 µg/mL (≈ 0.293 µM). Besides, in the assay with S. aureus ATCC29213, the “MIC (B: S. aureus ATCC29213)” value was determined as 0.5 µg/mL (≈ 0.587 µM). Moreover, the “MIC (D: S. pneumoniae ATCC49619)” value against S. pneumoniae ATCC49619 stood at 0.06 µg/mL (≈ 0.0704 µM).
As for `CCC1OC(=O)C(C)(F)C(=O)C(C)C(OC2OC(C)CC(N(C)C)C2O)C(C)(OC(=O)OCC=Cc2ccc(-c3ncccn3)cc2)CC(C)C(=O)C(C)C2NC(=O)OC12C` (stereo not drawn) [Compound 288], the “MIC (C: E. faecalis ATCC29212)” value in the assay with E. faecalis ATCC29212 was determined as 0.12 µg/mL (≈ 0.14 µM). Also, the “MIC (B: S. aureus ATCC29213)” value in the assay with S. aureus ATCC29213 was 0.25 µg/mL (≈ 0.292 µM). Also, the “MIC (D: S. pneumoniae ATCC49619)” value in the assay on S. pneumoniae ATCC49619 turned out to be 0.06 µg/mL (≈ 0.0702 µM).
For `CC[C@H]1OC(=O)[C@H](C)C(=O)[C@H](C)[C@@H](O[C@@H]2O[C@H](C)C[C@H](N(C)C)[C@H]2O)[C@](C)(OC(=O)NOC/C=C/c2cccnc2)C[C@@H](C)C(=O)[C@H](C)[C@H]2NC(=O)O[C@@]21C` [Compound 615], in that order: 0.25 µg/mL (≈ 0.323 µM), 1 µg/mL (≈ 1.29 µM) and 0.06 µg/mL (≈ 0.0774 µM).
